Test system: Transport facilitation protein genes
Test: DNA chip mRNA expression in yeast, transport facilitation protein genes (Table 5)
Format: cell-based, Saccharomyces cerevisiae S288C
Outline: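 Cells were grown at 25° C. in YPD, treated at logarithmic phase for 2 h with a chemical at a concentration inhibiting growth but not causing death, and compared with untreated cultures. Labeled cDNA was hybridized to a DNA chip carrying all yeast genes, and the expression ratio was taken from scanner fluorescence.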

## CCCCCCCCCCCCc1ccc(S(=O)(=O)[O-])cc1.[Na+] [(17), sodium dodecylbenzosulfonate]
Yeast gene YGR224W
  The level of expressed mRNA in the presence of chemical substance/The level of expressed mRNA in the absence of chemical substance: 2.8
Yeast gene YGR260W
  The level of expressed mRNA in the presence of chemical substance/The level of expressed mRNA in the absence of chemical substance: 0.9
Yeast gene YGR281W
  The level of expressed mRNA in the presence of chemical substance/The level of expressed mRNA in the absence of chemical substance: 2.8
Yeast gene YHL035C
  The level of expressed mRNA in the presence of chemical substance/The level of expressed mRNA in the absence of chemical substance: 1.1
Yeast gene YHL040C
  The level of expressed mRNA in the presence of chemical substance/The level of expressed mRNA in the absence of chemical substance: 1.4
Yeast gene YHL047C
  The level of expressed mRNA in the presence of chemical substance/The level of expressed mRNA in the absence of chemical substance: 1.2
Yeast gene YHR026W
  The level of expressed mRNA in the presence of chemical substance/The level of expressed mRNA in the absence of chemical substance: 0.9
Yeast gene YHR092C
  The level of expressed mRNA in the presence of chemical substance/The level of expressed mRNA in the absence of chemical substance: 0.9
Yeast gene YHR094C
  The level of expressed mRNA in the presence of chemical substance/The level of expressed mRNA in the absence of chemical substance: 1.4
Yeast gene YHR175W
  The level of expressed mRNA in the presence of chemical substance/The level of expressed mRNA in the absence of chemical substance: 1.3
Yeast gene YIL006W
  The level of expressed mRNA in the presence of chemical substance/The level of expressed mRNA in the absence of chemical substance: 0.8
Yeast gene YIL022W
  The level of expressed mRNA in the presence of chemical substance/The level of expressed mRNA in the absence of chemical substance: 0.8
Yeast gene YIL056W
  The level of expressed mRNA in the presence of chemical substance/The level of expressed mRNA in the absence of chemical substance: 1.5
Yeast gene YIL088C
  The level of expressed mRNA in the presence of chemical substance/The level of expressed mRNA in the absence of chemical substance: 1.2
Yeast gene YJL034W
  The level of expressed mRNA in the presence of chemical substance/The level of expressed mRNA in the absence of chemical substance: 1.1
Yeast gene YJL212C
  The level of expressed mRNA in the presence of chemical substance/The level of expressed mRNA in the absence of chemical substance: 0.6
Yeast gene YJL219W
  The level of expressed mRNA in the presence of chemical substance/The level of expressed mRNA in the absence of chemical substance: 1.6
Yeast gene YJR077C
  The level of expressed mRNA in the presence of chemical substance/The level of expressed mRNA in the absence of chemical substance: 1.0
Yeast gene YJR106W
  The level of expressed mRNA in the presence of chemical substance/The level of expressed mRNA in the absence of chemical substance: 1.2
Yeast gene YJR121W
  The level of expressed mRNA in the presence of chemical substance/The level of expressed mRNA in the absence of chemical substance: 1.1
Yeast gene YKL016C
  The level of expressed mRNA in the presence of chemical substance/The level of expressed mRNA in the absence of chemical substance: 1.0
Yeast gene YKL146W
  The level of expressed mRNA in the presence of chemical substance/The level of expressed mRNA in the absence of chemical substance: 1.0
Yeast gene YKR039W
  The level of expressed mRNA in the presence of chemical substance/The level of expressed mRNA in the absence of chemical substance: 0.9
Yeast gene YKR067W
  The level of expressed mRNA in the presence of chemical substance/The level of expressed mRNA in the absence of chemical substance: 0.8
Yeast gene YLL028W
  The level of expressed mRNA in the presence of chemical substance/The level of expressed mRNA in the absence of chemical substance: 1.2
Yeast gene YLR081W
  The level of expressed mRNA in the presence of chemical substance/The level of expressed mRNA in the absence of chemical substance: 0.7
Yeast gene YLR295C
  The level of expressed mRNA in the presence of chemical substance/The level of expressed mRNA in the absence of chemical substance: 0.9
Yeast gene YLR348C
  The level of expressed mRNA in the presence of chemical substance/The level of expressed mRNA in the absence of chemical substance: 1.1
Yeast gene YLR378C
  The level of expressed mRNA in the presence of chemical substance/The level of expressed mRNA in the absence of chemical substance: 0.9
Yeast gene YMR011W
  The level of expressed mRNA in the presence of chemical substance/The level of expressed mRNA in the absence of chemical substance: 1.3
Yeast gene YMR162C
  The level of expressed mRNA in the presence of chemical substance/The level of expressed mRNA in the absence of chemical substance: 0.8
Yeast gene YMR203W
  The level of expressed mRNA in the presence of chemical substance/The level of expressed mRNA in the absence of chemical substance: 0.8
Yeast gene YNL055C
  The level of expressed mRNA in the presence of chemical substance/The level of expressed mRNA in the absence of chemical substance: 1.2
Yeast gene YNL259C
  The level of expressed mRNA in the presence of chemical substance/The level of expressed mRNA in the absence of chemical substance: 2.6
Yeast gene YNR072W
  The level of expressed mRNA in the presence of chemical substance/The level of expressed mRNA in the absence of chemical substance: 1.3
Yeast gene YOL119C
  The level of expressed mRNA in the presence of chemical substance/The level of expressed mRNA in the absence of chemical substance: 1.4
Yeast gene YOL156W
  The level of expressed mRNA in the presence of chemical substance/The level of expressed mRNA in the absence of chemical substance: 0.9
Yeast gene YOL163W
  The level of expressed mRNA in the presence of chemical substance/The level of expressed mRNA in the absence of chemical substance: 0.8
Yeast gene YOR035C
  The level of expressed mRNA in the presence of chemical substance/The level of expressed mRNA in the absence of chemical substance: 1.6
Yeast gene YOR130C
  The level of expressed mRNA in the presence of chemical substance/The level of expressed mRNA in the absence of chemical substance: 1.5
Yeast gene YOR153W
  The level of expressed mRNA in the presence of chemical substance/The level of expressed mRNA in the absence of chemical substance: 2.5
Yeast gene YOR273C
  The level of expressed mRNA in the presence of chemical substance/The level of expressed mRNA in the absence of chemical substance: 3.2
Yeast gene YOR316C
  The level of expressed mRNA in the presence of chemical substance/The level of expressed mRNA in the absence of chemical substance: 0.8
Yeast gene YOR332W
  The level of expressed mRNA in the presence of chemical substance/The level of expressed mRNA in the absence of chemical substance: 1.3
Yeast gene YOR348C
  The level of expressed mRNA in the presence of chemical substance/The level of expressed mRNA in the absence of chemical substance: 0.9
Yeast gene YPL036W
  The level of expressed mRNA in the presence of chemical substance/The level of expressed mRNA in the absence of chemical substance: 0.4
Yeast gene YPL134C
  The level of expressed mRNA in the presence of chemical substance/The level of expressed mRNA in the absence of chemical substance: 1.3
Yeast gene YPL271W
  The level of expressed mRNA in the presence of chemical substance/The level of expressed mRNA in the absence of chemical substance: 1.2
Yeast gene YPR192W
  The level of expressed mRNA in the presence of chemical substance/The level of expressed mRNA in the absence of chemical substance: 1.6
Yeast gene YPR194C
  The level of expressed mRNA in the presence of chemical substance/The level of expressed mRNA in the absence of chemical substance: 1.0

Reference: US8192962B2, “Processes for detecting toxic substances” (Daikin Industries, Ltd., priority 2001, dated 2012)
